What was measured:
[1] = biological target: T1, dP2XB (Dictyostelium discoideum, UniProt Q553Y1); assay: two-electrode voltage clamp, Xenopus oocytes, peak current; assay type: cell-based
T1 sequence (Q553Y1 1-369): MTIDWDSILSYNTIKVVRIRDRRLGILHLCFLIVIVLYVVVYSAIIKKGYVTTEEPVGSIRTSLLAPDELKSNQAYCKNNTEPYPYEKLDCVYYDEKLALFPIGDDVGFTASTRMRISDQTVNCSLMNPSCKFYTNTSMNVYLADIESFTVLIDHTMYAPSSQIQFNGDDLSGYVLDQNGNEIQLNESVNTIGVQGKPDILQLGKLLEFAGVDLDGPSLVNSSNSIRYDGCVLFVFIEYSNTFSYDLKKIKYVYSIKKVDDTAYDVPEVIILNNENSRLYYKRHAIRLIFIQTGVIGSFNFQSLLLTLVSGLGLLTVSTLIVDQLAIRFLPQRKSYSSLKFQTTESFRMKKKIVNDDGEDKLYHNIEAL

[2] = biological target: dP2XA (Dictyostelium discoideum, UniProt Q86JM7); assay: as above; assay type: cell-based
[3] = biological target: T2, dP2XE (Dictyostelium discoideum, UniProt Q54JH4); assay: cell-based
T2 sequence (Q54JH4 1-388): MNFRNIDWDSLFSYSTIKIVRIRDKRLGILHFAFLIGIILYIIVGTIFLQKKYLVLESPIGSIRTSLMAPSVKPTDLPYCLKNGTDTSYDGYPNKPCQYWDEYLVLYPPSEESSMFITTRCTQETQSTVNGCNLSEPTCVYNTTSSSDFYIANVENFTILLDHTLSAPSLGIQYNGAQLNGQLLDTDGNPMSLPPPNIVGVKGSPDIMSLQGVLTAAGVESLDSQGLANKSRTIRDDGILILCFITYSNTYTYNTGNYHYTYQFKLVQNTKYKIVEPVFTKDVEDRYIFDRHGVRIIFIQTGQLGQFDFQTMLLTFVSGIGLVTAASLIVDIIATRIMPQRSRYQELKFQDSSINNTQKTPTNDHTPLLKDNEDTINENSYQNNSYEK

[4] = biological target: T2, dP2XE; assay: two-electrode voltage clamp, Xenopus oocytes, peak current; assay type: cell-based; conditions: weak partial agonist; ND98K+, pH 6.2, −70 mV, room temperature

Sequence of dP2XA (Q86JM7 whole entry): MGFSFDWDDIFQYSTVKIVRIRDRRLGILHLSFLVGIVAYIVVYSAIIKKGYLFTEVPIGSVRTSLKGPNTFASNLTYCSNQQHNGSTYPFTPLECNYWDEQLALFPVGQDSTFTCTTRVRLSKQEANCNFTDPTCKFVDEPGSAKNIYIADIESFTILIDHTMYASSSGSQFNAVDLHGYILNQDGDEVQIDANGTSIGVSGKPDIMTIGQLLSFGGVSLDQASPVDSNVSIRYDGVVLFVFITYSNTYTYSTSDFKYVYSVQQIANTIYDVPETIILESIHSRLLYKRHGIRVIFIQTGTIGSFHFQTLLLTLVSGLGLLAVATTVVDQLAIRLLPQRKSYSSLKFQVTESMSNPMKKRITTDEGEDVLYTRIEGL

## Nc1ncnc2c1ncn2[C@@H]1O[C@H](COP(=O)(O)OP(=O)(O)OP(=O)(O)O)[C@@H](O)[C@H]1O [ATP]
[1]
  EC50: 266 µM
[2]
  EC50: 97 µM
[3]
  EC50: 511 µM

## Nc1ncnc2c1ncn2[C@@H]1O[C@H](COP(=O)(O)OP(=O)(O)NP(=O)(O)O)[C@@H](O)[C@H]1O [β,γ-Imido-ATP]
[1]
  EC50: 85 µM
[4]
  maximal response, % that of ATP: 22.3 ± 6.4%
[2]
  EC50: 3.1 µM

— publication PMC2787382 (The Journal of Biological Chemistry, 2009)
